According to US5010059A, “Pharmaceutical products and lactosyl compounds” (Solco Basel AG, priority 1987, dated 1991):
Where “and” joins values, the source holds several entries; their conditions need not be identical. Identical values can stand only once. Like-named read-outs stand apart in the source and are kept apart here.

What was measured:
GalN/endotoxin hepatitis [1] = experiment: GalN/endotoxin hepatitis, cytoprotective effect of the compounds; assay type: in vivo, albino mice of the NMRI strain; conditions: 200 μg/kg i.p. 1 hour before GalN/endotoxin; serum 9 hours later; n.s. not significant, *p ≤ 0.05, **p ≤ 0.01
Source text: In order to gain a deeper insight into the pharmacological properties of the compounds of the formula I, they have been examined for any cytoprotective effects they may have. The cytoprotective effect can be shown, inter alia, by the method described by A. Wendel and G. Tiegs in Biochemical Pharmacology 35 (1986), 2115-2118. This is based on the impairment of liver function as a consequence of sensitization of the liver due to administration of D-galactosamine and simultaneous treatment with endotoxins.
D-galactosamine (abbreviated to GalN) causes in animals liver damage which is regarded as a model for human viral hepatitis. The mechanism is assumed to be an accumulation of toxic galactosamine derivatives in the liver, which results in a diminution in the biosynthesis of macromolecules such as ribonucleic acids, proteins, glycoproteins and glycogens. These changes in the metabolism may in turn result in cell damage or even death of cells in the liver. The extent of liver damage can be determined by the increase in certain liver enzymes (sorbitol dehydrogenase SDH, serum glutamic-oxalic transaminase SGOT, serum glutamic-pyruvic transaminase SGPT) in the blood and by histology of the liver.
The test is carried out as follows.
Male albino mice of the NMRI strain are pretreated intraperitoneally with 200 μg/kg test substance and, 1 hour thereafter, treated intraperitoneally with 700 mg/kg D-galactosamine and 33 μg/kg endotoxins. 9 hours later, blood is removed by cardiac puncture, and the enzymatic activity in the blood serum is determined according to H. U. Bergmeyer [Methods in Enzymatic Analysis, 3rd edition (1985), volume III]. In this experimental model, the […] (Kupffer cells) actually function as immobilized macrophages.
The content of the liver enzymes SDH, SGOT and SGPT in the serum is expressed in international units (IU) for the enzyme activity; 1 IU=1 μmol of substrate converted/minute in one liter.

cutaneous necrosis = experiment: skin flap test (action promoting healing); assay type: in vivo, Wistar rats; conditions: for Area of surviving skin in mm^2 / Area of the necrotic skin in mm^2 / Area of the skin flap / Area of surviving skin in % / Area of the necrotic skin in %: 1.5 ml i.p. daily for 8 days; for Area of surviving skin in mm^2 / Area of the necrotic skin in mm^2 / Area of the skin flap: 5% concentration; for Area of surviving skin in % / Area of the necrotic skin in %: % of skin flap; for Action of the compound in %: increase in area of surviving skin as percentage compared with control
Source text: Various pharmacological tests can be used to test for any therapeutically beneficial effect on damaged cells and tissues. An action promoting healing can be estimated and measured, in particular, by using the so-called skin flap test; the test is based on the development of a cutaneous necrosis and the inhibition thereof as a consequence of the action of the test substance.
Male Wistar rats of body weight 220-240 g in groups of 8 animals for each value which is to be determined are anesthetized with Nembutal (50 mg/kg, i.p.). A 1×3 cm skin flap is cut out, using a scalpel, from the back, is thoroughly washed and is returned to the original site and is sutured. The test animals are given the compound which is to be tested, in 5% concentration in aqueous solution (containing 0.2% ethanol and 1% polyethylene glycol of molecular weight 20,000--or Carbowax ®20; in each case 1.5 ml intraperitoneal), each day for 8 days; the control animals receive only the aqueous medium. Each day drawings are made of the skin flaps on the scale 1:1, with the necrotic sites being colored black. The animals are sacrificed after 8 days, and the drawings are evaluated using a Biotran apparatus, and the total area of the necrotic sites is measured in mm^2. The action promoting healing is expressed as the increase in the area of surviving skin as a percentage compared with the control.

GalN/endotoxin hepatitis [2] = conditions: *p ≤ 0.01, **p ≤ 0.001; indomethacin 9 mg/kg; diethylcarbamazine 78 mg/kg i.p. every 45 minutes between 0 and 6 hours; dexamethasone 200 μg/kg i.p.; cited from earlier work
acute toxicity testing = assay type: in vivo; parameters: Weight on May 10, 1988 / Weight on May 20, 1988: unit not given here
Description: Two groups each of ten mice were observed and weighed each day for 10 days. The animals in the control group each received intraperitoneal administration of 500 μl of a 5 mmol/l solution of Pluronic ® F 68 (manufactured by BASF Wyandotte, Erbsloh/FRG) in physiological saline, while those in the test group received 500 μl of a solution of 6 mg of the compound named above in 6 ml of Pluronic® F 68.

| Structure (SMILES) | SDH (GalN/endotoxin hepatitis [1]) | SGOT (GalN/endotoxin hepatitis [1]) | SGPT (GalN/endotoxin hepatitis [1]) | Area of surviving skin in mm^2 (cutaneous necrosis) | Area of the necrotic skin in mm^2 (cutaneous necrosis) | Area of the skin flap (cutaneous necrosis) | Area of surviving skin in % (cutaneous necrosis) | Area of the necrotic skin in % (cutaneous necrosis) | Action of the compound in % (cutaneous necrosis) | SGOT (GalN/endotoxin hepatitis [2]) | SGPT (GalN/endotoxin hepatitis [2]) | special reactions immediately after the injection (acute toxicity testing; about 20 mg/kg i.p.) | toxic signs (acute toxicity testing; about 20 mg/kg i.p., during the experiment and days which followed) | weight gain versus control group (acute toxicity testing; about 20 mg/kg i.p., test versus control group) | mortality (acute toxicity testing; mouse, in vivo) | Weight on May 20, 1988 (acute toxicity testing; test group, individual animals, 10 days, about 20 mg/kg i.p.) | Weight difference (acute toxicity testing; test group, individual animals, May 10 to May 20, about 20 mg/kg i.p.) | Weight on May 10, 1988 (acute toxicity testing; test group, individual animals, before/at i.p. dosing (about 20 mg/kg)) |
| --- | --- | --- | --- | --- | --- | --- | --- | --- | --- | --- | --- | --- | --- | --- | --- | --- | --- | --- |
| CCCCCCCCCCCCC/C=C/[C@@H](O)[C@H](CO[C@@H]1O[C@H](CO)[C@@H](O[C@@H]2O[C@H](CO)[C@H](O)[C@H](O)[C@H]2O)[C@H](O)[C@H]1O)NC(=O)CCCCCCCCCCCCCCC [Lac(Pal)-D-Sph, (2S,3R,4E)-1-[4-0-(8-D-galactopyranosyl) -β-D-glucopyranosyloxy]-2-hexadecanoylamino-4-octadecen-3-ol] | 80 ± 30 IU/liter | 80 ± 20 IU/liter | 110 ± 70 IU/liter | 197.6 ± 12.6 mm^2 | 113.2 ± 13.0 mm^2 | 310.9 ± 6.9 mm^2 | 63.8% | 36.2% | +47.3% |  |  |  |  |  |  |  |  |  |
| CCCCCCCCCCCCCC=CC(O)C(COC1OC(CO)C(O)C(O)C1O)NC(=O)CCCCCCCCCCCCCCC [Glu(Pal)-L-Sph] | 1690 ± 1680 IU/liter | 410 ± 360 IU/liter | 1470 ± 1460 IU/liter | 178.6 ± 16.8 mm^2 | 85.8 ± 14.7 mm^2 | 264.4 ± 2.6 mm^2 | 67.3% | 32.7% | +55.8% |  |  |  |  |  |  |  |  |  |
| CC/C=C\C/C=C\C/C=C\CCCCCCCC(=O)N[C@@H](CO[C@@H]1O[C@H](CO)[C@@H](O)[C@H](O)[C@H]1O)[C@H](O)/C=C/CCCCCCCCCCCCC [Glu(Linolen)-D-Sph] | 2280 ± 355 IU/liter | 940 ± 170 IU/liter | 3350 ± 630 IU/liter | 107.4 ± 27.3 mm^2 | 184.1 ± 28.9 mm^2 | 291.5 ± 5.5 mm^2 | 37.2% | 62.8% | +144.7% |  |  |  |  |  |  |  |  |  |
| CCCCCCCCCCCCCC=CC(O)C(COC1OC(CO)C(O)C(O)C1O)NC(=O)CCCCCCCCCCCCCCC [Gal(Pal)-D-Sph] | 2400 ± 2800 IU/liter | 1030 ± 1150 IU/liter | 2990 ± 3510 IU/liter | 191.8 ± 18.9 mm^2 | 81.4 ± 18.5 mm^2 | 273.3 ± 5.2 mm^2 | 70.2% | 29.8% | +31.2% |  |  |  |  |  |  |  |  |  |
| C[C@@H]1C[C@H]2[C@@H]3CCC4=CC(=O)C=C[C@]4(C)[C@@]3(F)[C@@H](O)C[C@]2(C)[C@@]1(O)C(=O)CO [Dexamethasone] |  |  |  |  |  |  |  |  |  | 140 ± 100 | 100 ± 60 |  |  |  |  |  |  |  |
| CCN(CC)C(=O)N1CCN(C)CC1 [Diethylcarbamazine] |  |  |  |  |  |  |  |  |  | 270 ± 90 | 290 ± 180 |  |  |  |  |  |  |  |
| CCCCC/C=C\C/C=C\C/C=C\C/C=C\CCCC(=O)N[C@@H](CO[C@@H]1O[C@H](CO)[C@@H](O[C@@H]2O[C@H](CO)[C@H](O)[C@H](O)[C@H]2O)[C@H](O)[C@H]1O)[C@H](O)/C=C/CCCCCCCCCCCCC [Lac(Arach)-D-Sph] | 355 ± 425 IU/liter | 280 ± 260 IU/liter | 290 ± 210 IU/liter | 211.6 ± 33.3 mm^2 | 111.5 ± 25.8 mm^2 | 323.1 ± 10.4 mm^2 | 64.1% | 35.8% | +36.8% |  |  |  |  |  |  |  |  |  |
| CC/C=C\C/C=C\C/C=C\CCCCCCCC(=O)N[C@@H](CO[C@@H]1O[C@H](CO)[C@@H](O[C@@H]2O[C@H](CO)[C@H](O)[C@H](O)[C@H]2O)[C@H](O)[C@H]1O)[C@H](O)/C=C/CCCCCCCCCCCCC [Lac(Linolen)-D-Sph, (2S,3R,4E)-1-[4-0-(β-D-Galactopyranosyl)-β-D-glucopyranosyloxy-oxy]-2-[(9Z,12Z,15Z)-9,12,15-octadecatrienoylamino]-4-octadecen-3-ol] | 290 ± 250 IU/liter | 124 ± 55 IU/liter | 230 ± 76 IU/liter | 195.9 ± 35.5 mm^2 | 128.1 ± 34.2 mm^2 | 324.0 ± 10.0 mm^2 | 60.4% | 39.6% | +22.0% |  |  |  |  |  |  |  |  |  |
| CCCCCCCCCCCCC/C=C/[C@H](O)[C@@H](CO[C@@H]1O[C@H](CO)[C@@H](O[C@@H]2O[C@H](CO)[C@H](O)[C@H](O)[C@H]2O)[C@H](O)[C@H]1O)NC(=O)CCCCCCCCCCCCCCC [Lac(Pal)-L-Sph, (2R,3S,4E)-1-[4-0-(8-D-galactopyranosyl) -β-D-gluco-pyranosyloxy]-2-hexadecanoylamino-4-octadecen-3-ol] | 80 IU/liter | 120 ± 80 IU/liter | 80 ± 20 IU/liter | 182.8 ± 11.3 mm^2 | 112.7 ± 13.3 mm^2 | 295.5 ± 6.4 mm^2 | 62.3% | 37.7% | +43.9% |  |  | nor were any special reactions immediately after the injection | no toxic signs | strictly comparable in respect of weight gain | No mortality | 35.7 and 33.0 and 35.0 and 34.9 and 34.4 and 39.9 and 28.8 and 34.0 and 30.5 and 31.9 | +6.6 g and +6.0 g and +7.3 g and +7.0 g and +7.7 g and +9.7 g and +4.3 g and +6.4 g and +3.9 g and +5.6 g | 29.1 and 27.0 and 27.7 and 27.9 and 26.7 and 30.2 and 24.5 and 27.6 and 26.6 and 26.3 |
| COc1ccc2c(c1)c(CC(=O)O)c(C)n2C(=O)c1ccc(Cl)cc1 [Indomethacin] |  |  |  |  |  |  |  |  |  | 480 ± 475 | 730 ± 1,040 |  |  |  |  |  |  |  |
| CCCCCCCCCCCCC/C=C/[C@@H](O)[C@H](CO[C@@H]1O[C@H](CO)[C@@H](O)[C@H](O)[C@H]1O)NC(=O)CCCCCCCCCCCCCCC [Glu(Pal)-D-Sph] | 4720 ± 2320 IU/liter | 910 ± 425 IU/liter | 3950 ± 2260 IU/liter | 144.1 ± 9.1 mm^2 | 113.3 ± 10.6 mm^2 | 257.4 ± 6.2 mm^2 | 56.2% | 43.8% | +30.1% |  |  |  |  |  |  |  |  |  |
